Reference: paper PMC6342991, “Effects of point mutations in the binding pocket of the mouse major urinary protein MUP20 on ligand affinity and specificity” (Scientific Reports, 2019)
Changes are numbered by the printed parent chain. Values joined by “and” are separate entries in the source; they are usually repeats but may differ in a detail not shown here. Identical values can stand only once. “Also recorded” adds a separate entry of the source. Like-named read-outs stand apart in the source and are kept apart here.

Assays:
[1] = target: T1, MUP20L124V (Mus musculus, UniProt Q5FW60, L124V); assay: Fluorescence competitive binding assay with 1-NPN, MUP20 L124V
T1 construct: 6xHis (N); made in house; host or cells: E. coli BL21(DE3), pET5b
T1 sequence (Q5FW60 20-181 L124V): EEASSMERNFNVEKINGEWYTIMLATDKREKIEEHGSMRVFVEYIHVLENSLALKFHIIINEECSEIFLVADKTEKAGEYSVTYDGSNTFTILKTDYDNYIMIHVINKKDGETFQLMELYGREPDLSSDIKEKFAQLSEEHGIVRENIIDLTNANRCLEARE
Procedure: (§1) Fluorescence competitive binding assays: Fluorescence-competitive binding assays were carried out using the fluorescent probe N-phenyl-1-naphthylamine (1-NPN), as described[39],[40]. A binding curve was constructed and the dissociation constant of the probe (KD) was calculated.
(§2) The binding analyses assumed that the protein had 100% activity and that the stoichiometry of binding was 1:1 at saturation. The affinity of various volatile ligands was measured in competitive binding assays.
(§3) The change in fluorescence was recorded after adding increasing concentrations of ligand. Competitor concentrations causing a decay of fluorescence to half-maximal intensity were determined as IC50 and the dissociation constant for the test ligands (expressed as Kd) was calculated using the following formula:1 Kd=[IC50]/1+[Probe]/KD where [Probe] is the free concentration of the fluorescent probe and KD is the dissociation constant of the complex Protein/Probe.

[2] = target: T2, MUP20Y103D (Mus musculus, UniProt Q5FW60, Y103D); assay: Fluorescence competitive binding assay with 1-NPN, MUP20 Y103D
T2 construct: 6xHis (N); made in house; host or cells: E. coli BL21(DE3), pET5b
T2 sequence (Q5FW60 20-181 Y103D): T1 sequence (Q5FW60 20-181 L124V) with Y84D, V105L
Procedure: as §1, §2, §3

[3] = target: T3, MUP20L88Q (Mus musculus, UniProt Q5FW60, L88Q); assay: Fluorescence competitive binding assay with 1-NPN, MUP20 L88Q; settings: 1-NPN displacement, 50 mM Tris-HCl pH 7.4, 25 °C
T3 construct: 6xHis (N); made in house; host or cells: E. coli BL21(DE3), pET5b
T3 sequence (Q5FW60 20-181 L88Q): T1 sequence (Q5FW60 20-181 L124V) with L69Q, V105L
Procedure: as §1
The affinity of various volatile ligands was measured in competitive binding assays.
as §3

[4] = target: T4, wild type MUP20 (Mus musculus, UniProt Q5FW60); assay: Fluorescence competitive binding assay with 1-NPN, wild type MUP20; settings: 1-NPN displacement, 50 mM Tris-HCl pH 7.4, 25 °C
T4 construct: 6xHis (N); made in house; host or cells: E. coli BL21(DE3), pET5b
T4 sequence (Q5FW60 20-181): T1 sequence (Q5FW60 20-181 L124V) with V105L
Procedure: as §1, §2, §3

[5] = target: T5, MUP20E137K (Mus musculus, UniProt Q5FW60, E137K); assay: Fluorescence competitive binding assay with 1-NPN, MUP20 E137K
T5 construct: 6xHis (N); made in house; host or cells: E. coli BL21(DE3), pET5b
T5 sequence (Q5FW60 20-181 E137K): T1 sequence (Q5FW60 20-181 L124V) with V105L, E118K
Procedure: as §1, §2, §3

[6] = target: T6, MUP20V59T (Mus musculus, UniProt Q5FW60, V59T); assay: Fluorescence competitive binding assay with 1-NPN, MUP20 V59T
T6 construct: 6xHis (N); made in house; host or cells: E. coli BL21(DE3), pET5b
T6 sequence (Q5FW60 20-181 V59T): T1 sequence (Q5FW60 20-181 L124V) with V40T, V105L
Procedure: as §1, §2, §3

[7] = target: T7, MUP20N107L (Mus musculus, UniProt Q5FW60, N107L); assay: Fluorescence competitive binding assay with 1-NPN, MUP20 N107L
T7 construct: 6xHis (N); made in house; host or cells: E. coli BL21(DE3), pET5b
T7 sequence (Q5FW60 20-181 N107L): T1 sequence (Q5FW60 20-181 L124V) with N88L, V105L
Procedure: as §1, §2, §3

[8] = target: T8, MUP20Y103R (Mus musculus, UniProt Q5FW60, Y103R); assay: Fluorescence competitive binding assay with 1-NPN, MUP20 Y103R
T8 construct: 6xHis (N); made in house; host or cells: E. coli BL21(DE3), pET5b
T8 sequence (Q5FW60 20-181 Y103R): T1 sequence (Q5FW60 20-181 L124V) with Y84R, V105L
Procedure: as §1, §2, §3

[9] = target: T9, MUP20 mutant L88Q (Mus musculus, UniProt Q5FW60, L88Q); assay: Isothermal titration calorimetry, MUP20 L88Q; assay type: binding; settings: for Kd: one-site binding model, 25 °C, 50 mM Tris HCl pH 7.4, read-out: Equilibrium dissociation constant Kd (ITC), L88Q
T9 construct: 6xHis (N); made in house; host or cells: E. coli BL21(DE3), pET5b
T9 sequence (Q5FW60 20-181 L88Q): T1 sequence (Q5FW60 20-181 L124V) with L69Q, V105L
Procedure: (§4) ITC titrations were performed at 25 ± 0.1 °C in 50 mM Tris HCl pH 7.4, using a MicroCal VP-ITC instrument. To a MUP solution (1.7 ml, 25 µM) were sequentially added 25 aliquots (10 μl each) of a ligand stock solution (500 μM), with a delay of 4 min after each injection with continuous stirring of the solution (at 307 r.p.m.) in the sample cell. Before analysis, protein samples were dialyzed overnight in the same buffer, using a Slide-A-Lyzer (3.5-kDa cutoff) from ThermoFisher Scientific (Waltham, MA, USA), and thoroughly degassed. The heat of dilution was determined in control experiments by injecting aliquots (10 µl) of a ligand stock solution (500 µM) into buffer and this was subtracted from the integrated binding isotherm prior to curve fitting. Each injection generated a heat-burst curve (μcal s^−1) versus time (min). The area under each peak was determined by integration using Origin 7.5 software (Microcal, Inc.) to give the heat associated with the injection. The heat exchanged per mole of injectant was plotted against the ligand:protein molar ratio. The binding constants (Ka) and stoichiometry (N) parameters of the binding process were obtained by fitting the integrated heats of binding to the one-site binding model using the MicroCal ITC Data Analysis software.

[10] = target: T3, MUP20L88Q; design: method as in Scorsone et al., IEEE Sensors Journal 2016, 16, 6543, Tab. 1; settings: ref Scorsone et al., IEEE Sensors Journal 2016, 16, 6543, Tab. 1; read-out: Kd, L88Q (starred value); cited from earlier work
[11] = target: T4, wild type MUP20; design: method as in Scorsone et al., IEEE Sensors Journal 2016, 16, 6543, Tab. 1; settings: ref Scorsone et al., IEEE Sensors Journal 2016, 16, 6543, Tab. 1; read-out: Kd, WT (starred value); cited from earlier work
[12] = target: T1, MUP20L124V; design: method as in Scorsone et al., IEEE Sensors Journal 2016, 16, 6543, Tab. 1; settings: ref Scorsone et al., IEEE Sensors Journal 2016, 16, 6543, Tab. 1; read-out: Kd, L124V (starred value); cited from earlier work
[13] = target: T10, MUP20 mutant L124V (Mus musculus, UniProt Q5FW60, L124V); assay: Isothermal titration calorimetry, MUP20 L124V; assay type: binding; settings: for Drop of affinity of L124V compared to wild-type MUP20 (ITC): decrease in affinity; for Kd: one-site binding model, 25 °C, 50 mM Tris HCl pH 7.4, read-out: Equilibrium dissociation constant Kd (ITC), L124V
T10 construct: 6xHis (N); made in house; host or cells: E. coli BL21(DE3), pET5b
T10 sequence (Q5FW60 20-181 L124V): T1 sequence (Q5FW60 20-181 L124V)
Procedure: as §4

[14] = target: T4, wild type MUP20; assay: Isothermal titration calorimetry, wild type MUP20; assay type: binding; settings: for Kd: one-site binding model, 25 °C, 50 mM Tris HCl pH 7.4, read-out: Equilibrium dissociation constant Kd (ITC), WT
Procedure: as §4

[15] = target: T2, MUP20Y103D; design: method as in Scorsone et al., IEEE Sensors Journal 2016, 16, 6543, Tab. 1; settings: ref Scorsone et al., IEEE Sensors Journal 2016, 16, 6543, Tab. 1; read-out: Kd, Y103D (starred value); cited from earlier work
[16] = target: T11, MUP20 mutant Y103R (Mus musculus, UniProt Q5FW60, Y103R); assay: Isothermal titration calorimetry, MUP20 Y103R; assay type: binding; settings: 25 °C, 50 mM Tris HCl pH 7.4
T11 construct: 6xHis (N); made in house; host or cells: E. coli BL21(DE3), pET5b
T11 sequence (Q5FW60 20-181 Y103R): T1 sequence (Q5FW60 20-181 L124V) with Y84R, V105L
Procedure: as §4

[17] = 1-NPN displacement, 50 mM Tris-HCl pH 7.4, 25 °C, read-out: Measured Kd, L124V
[18] = 1-NPN displacement, 50 mM Tris-HCl pH 7.4, 25 °C, read-out: Measured Kd, Y103D
[19] = 1-NPN displacement, 50 mM Tris-HCl pH 7.4, 25 °C, read-out: Measured Kd, E137K
[20] = 1-NPN displacement, 50 mM Tris-HCl pH 7.4, 25 °C, read-out: Measured Kd, V59T
[21] = 1-NPN displacement, 50 mM Tris-HCl pH 7.4, 25 °C, read-out: Measured Kd, N107L
[22] = 1-NPN displacement, 50 mM Tris-HCl pH 7.4, 25 °C, read-out: Measured Kd, Y103R

Structure (SMILES) | Kd [1, 17] [µM] | Kd [2, 18] [µM] | Kd ([3]; read-out: Measured Kd, L88Q) | Kd ([4]; read-out: Measured Kd, WT) | Kd [5, 19] [µM] | Kd [6, 20] [µM] | Kd [7, 21] [µM] | Kd [8, 22] [µM] | Kd [9] [µM] | Drop of affinity of L124V compared to wild-type MUP20 (ITC) [13] [fold] | Kd [13] [µM] | Kd [14] [µM] | Binding strength to Y103R mutant (ITC) [16] | further results
C=CC(C)(O)CCC=C(C)C (stereo not drawn) [LIN, 3,7-dimethylocta-1,6-dien-3-ol] | 0.29 | 2.17 | 2.21 µM | 2.82 µM | 1.85 | 1.6 | 1.37 | 5.93 | – | – | – | – | – | –
Cc1ccc(O)c(C)c1 [2,4-DMP, 2,4-dimethylphenol] | – | – | – | – | – | – | – | – | – | – | – | – | – | Kd [1]: 1.3 µM; Kd [2]: 4.68 µM; Kd ([3]; Measured Kd, L88Q): 5.08 µM; Kd ([4]; Measured Kd, WT): 4.24 µM; Kd [5]: 4.05 µM; Kd [6]: 1.44 µM; Kd [7]: 1.99 µM; Kd [8]: 11.9 µM

Second part, led by results:

Kd [1, 17] [µM] | Kd [2, 18] [µM] | Kd ([3]; read-out: Measured Kd, L88Q) | Kd ([4]; read-out: Measured Kd, WT) | Kd [5, 19] [µM] | Kd [6, 20] [µM] | Kd [7, 21] [µM] | Kd [8, 22] [µM] | Kd [9] [µM] | Drop of affinity of L124V compared to wild-type MUP20 (ITC) [13] [fold] | Kd [13] [µM] | Kd [14] [µM] | Binding strength to Y103R mutant (ITC) [16] | Structure (SMILES) | further results
– | – | – | – | 2.14 | 1.85 | 1.23 | – | 13 ± 6 | 25 | 1900 ± 100 | 76 ± 19 | barely detectable | CC1=CC(=O)c2ccccc2C1=O [MEN, methylnapthalene-1,4-dione] | Kd [10]: 1.31 µM; Kd [11]: 0.61 µM; Kd [12]: 0.07 µM; Kd [15]: 0.82 µM
0.36 | 0.92 | 1.45 µM | 0.78 µM | 3.2 | 1.54 | 2.67 | 1.88 | – | – | – | – | – | CCCCCCC(CO)CCCC (stereo not drawn) [OCT, 2-butyl-1-octanol] | –
0.07 | 0.84 | 1.39 µM and 1.4 µM | 1.29 µM and 1.3 µM | 1.52 | 1.93 | 1.4 | 0.74 | 2.4 | 1300 | 2100 ± 200 | 1.6 | barely detectable | COc1nccnc1CC(C)C [PYR, 2-isobutyl-3-methoxypyrazine] | Change of affinity of L88Q compared to wild-type MUP20 (ITC) ([9]; number = increase in affinity): did not appreciably affect; also recorded: does not alter; Affinity for wild type MUP20 relative to MEN (ITC) ([14]; higher affinity than MEN): > 40 fold
